Laboratory results: PubChem BioAssay AID248 (DTP/NCI, 2004)
Several values for one entry are separate records, joined by “and”; a condition that tells them apart may be missing. Equal values may be shown once. Inconclusive results and toxic doses are left out. Cut-off read from the data, not from the text of the source: active = T/C of 150% or more; inactive = T/C below 125%.

System: L1210 leukemia ip in BDF1 mice, survival T/C
Assay: NCI In Vivo Anticancer Drug Screen. Data for tumor model L1210 Leukemia (intraperitoneal) in B6D2F1 (BDF1) mice
Details: endpoint: mean survival time, higher = longer survival
Method in brief: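 Each compound was tested against a transplantable tumor grown in mice. The endpoint was survival, with treated animals benchmarked against vehicle controls as a simple ratio.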

[1] = dose: 100.0 mg/kg/injection, schedule: Q01DX001 (ip), vehicle: saline with Tween-80
[2] = dose: 100.0 mg/kg/injection, schedule: Q04DX003 (ip), vehicle: saline with Tween-80
[3] = dose: 200.0 mg/kg/injection, schedule: Q01DX001 (ip), vehicle: saline with Tween-80
[4] = dose: 200.0 mg/kg/injection, schedule: Q04DX003 (ip), vehicle: saline with Tween-80
[5] = dose: 400.0 mg/kg/injection, schedule: Q01DX001 (ip), vehicle: saline with Tween-80
[6] = dose: 400.0 mg/kg/injection, schedule: Q04DX003 (ip), vehicle: saline with Tween-80
[7] = dose: 50.0 mg/kg/injection, schedule: Q01DX001 (ip), vehicle: saline
[8] = dose: 100.0 mg/kg/injection, schedule: Q01DX001 (ip), vehicle: saline
[9] = dose: 100.0 mg/kg/injection, schedule: Q04DX003 (ip), vehicle: saline
[10] = dose: 100.0 mg/kg/injection, schedule: Q01DX009 (ip), vehicle: Klucel (hydroxypropylcellulose) (HPC)
[11] = dose: 100.0 mg/kg/injection, schedule: Q04DX003 (ip), vehicle: Klucel (hydroxypropylcellulose) (HPC)
[12] = dose: 200.0 mg/kg/injection, schedule: Q01DX009 (ip), vehicle: Klucel (hydroxypropylcellulose) (HPC)
[13] = dose: 200.0 mg/kg/injection, schedule: Q04DX003 (ip), vehicle: Klucel (hydroxypropylcellulose) (HPC)
[14] = dose: 400.0 mg/kg/injection, schedule: Q01DX009 (ip), vehicle: Klucel (hydroxypropylcellulose) (HPC)
[15] = dose: 400.0 mg/kg/injection, schedule: Q04DX003 (ip), vehicle: Klucel (hydroxypropylcellulose) (HPC)
[16] = dose: 200.0 mg/kg/injection, schedule: Q01DX001 (ip), vehicle: saline
[17] = dose: 400.0 mg/kg/injection, schedule: Q01DX001 (ip), vehicle: saline
[18] = dose: 50.0 mg/kg/injection, schedule: Q01DX009 (ip), vehicle: Klucel (hydroxypropylcellulose) (HPC)

Measured: T/C

CC1(C)CCC2(C(=O)O)CCC3=C(C(CCl)CC4C3(C)CCC3C4(C)CC(O)C(O)C3(C)C(=O)O)C2C1 (stereo not drawn)
inactive: dose: 25.0 mg/kg/injection, schedule: Q01DX Z (ip), vehicle: carboxymethylcellulose (CMC) 96 % of control | dose: 50.0 mg/kg/injection, schedule: Q01DX Z (ip), vehicle: carboxymethylcellulose (CMC) 91 % of control | dose: 75.0 mg/kg/injection, schedule: Q01DX Z (ip), vehicle: carboxymethylcellulose (CMC) 97 % of control | dose: 125.0 mg/kg/injection, schedule: Q01DX Z (ip), vehicle: carboxymethylcellulose (CMC) 94 % of control

CCOC(=O)c1ccc(N2C(C#N)c3ccccc3OC2c2ccccc2O)cc1 (stereo not drawn)
inactive: [1] 91 % of control | dose: 100.0 mg/kg/injection, schedule: Q01DX009 (ip), vehicle: saline with Tween-80 93 % of control and 106 % of control | dose: 100.0 mg/kg/injection, schedule: Q04DX002 (ip), vehicle: saline with Tween-80 95 % of control and 92 % of control | [2] 90 % of control | [3] 88 % of control | dose: 200.0 mg/kg/injection, schedule: Q01DX009 (ip), vehicle: saline with Tween-80 94 % of control and 90 % of control | dose: 200.0 mg/kg/injection, schedule: Q04DX002 (ip), vehicle: saline with Tween-80 95 % of control and 97 % of control | [4] 97 % of control | [5] 88 % of control | dose: 400.0 mg/kg/injection, schedule: Q01DX009 (ip), vehicle: saline with Tween-80 94 % of control and 87 % of control | dose: 400.0 mg/kg/injection, schedule: Q04DX002 (ip), vehicle: saline with Tween-80 95 % of control and 100 % of control | [6] 89 % of control

O/C=C(\Cl)CCl
inactive: [7] 100 % of control | dose: 50.0 mg/kg/injection, schedule: Q01DX009 (ip), vehicle: saline 107 % of control and 108 % of control | dose: 50.0 mg/kg/injection, schedule: Q04DX002 (ip), vehicle: saline 97 % of control and 106 % of control | dose: 50.0 mg/kg/injection, schedule: Q04DX003 (ip), vehicle: saline 97 % of control | [8] 90 % of control | dose: 100.0 mg/kg/injection, schedule: Q01DX009 (ip), vehicle: saline 101 % of control and 104 % of control | [9] 106 % of control

OCC(O)C(O)C(O)C(O)C1SCCS1 (stereo not drawn)
inactive: [10] 88 % of control | [11] 98 % of control and 103 % of control and 93 % of control | [12] 89 % of control | [13] 103 % of control and 93 % of control | [14] 100 % of control | [15] 115 % of control and 88 % of control

CCCCOC(=O)c1ccc(O)c(OC)c1
inactive: [8] 100 % of control | [16] 105 % of control | [17] 102 % of control

CCOc1ccc(/C=N/NC(=S)NC23CC4CC(CC(C4)C2)C3)cc1OCC
inactive: dose: 75.0 mg/kg/injection, schedule: Q01DX001 (ip), vehicle: saline 94 % of control | dose: 150.0 mg/kg/injection, schedule: Q01DX001 (ip), vehicle: saline 95 % of control | dose: 300.0 mg/kg/injection, schedule: Q01DX001 (ip), vehicle: saline 94 % of control

COc1ccc2c(c1)CCc1cnoc1-2
inactive: [11] 93 % of control | [13] 95 % of control | [15] 95 % of control

Cc1ccc(S(=O)(=O)OC2CCC(=O)C3CC4(CCC23)OCCO4)cc1 (stereo not drawn)
inactive: [1] 91 % of control | [3] 87 % of control | [5] 95 % of control

O=C1C(=O)c2ccccc2C(O)=C1CCCc1ccc(OCc2ccccc2)cc1
inactive: dose: 12.5 mg/kg/injection, schedule: Q01DX009 (ip), vehicle: saline with Tween-80 92 % of control

CCc1ccccc1NC(=O)N(Cc1ccccc1)Cc1ccccc1
inactive: [10] 101 % of control | [12] 97 % of control | [14] 96 % of control

CC1COCCN1 (stereo not drawn)
inactive: [7] 91 % of control | [8] 97 % of control | [16] 100 % of control

CCOC(=O)c1c(-c2cc(OC)c(OC)c(OC)c2)csc1N
inactive: dose: 50.0 mg/kg/injection, schedule: Q04DX003 (ip), vehicle: saline with Tween-80 95 % of control | [2] 97 % of control | [4] 87 % of control | [6] 94 % of control

CO[C@@H]([CH2][Hg][S]C#N)[C@@H]([CH2][Hg][S]C#N)OC
inactive: dose: 6.25 mg/kg/injection, schedule: Q01DX009 (ip), vehicle: saline sonified 94 % of control | dose: 12.5 mg/kg/injection, schedule: Q01DX009 (ip), vehicle: saline sonified 90 % of control | dose: 12.5 mg/kg/injection, schedule: Q04DX003 (ip), vehicle: saline sonified 97 % of control | dose: 25.0 mg/kg/injection, schedule: Q01DX009 (ip), vehicle: saline sonified 93 % of control | dose: 25.0 mg/kg/injection, schedule: Q04DX003 (ip), vehicle: saline sonified 88 % of control

O=[N+]([O-])c1ccccc1C1=Cc2cccn2-c2ccccc2S1(=O)=O
inactive: [11] 95 % of control | [13] 100 % of control

CCC(Oc1ccccc1OC)C(=O)O (stereo not drawn)
inactive: dose: 100.0 mg/kg/injection, schedule: Q01DX001 (ip), vehicle: Klucel (hydroxypropylcellulose) (HPC) 105 % of control | dose: 200.0 mg/kg/injection, schedule: Q01DX001 (ip), vehicle: Klucel (hydroxypropylcellulose) (HPC) 103 % of control | dose: 400.0 mg/kg/injection, schedule: Q01DX001 (ip), vehicle: Klucel (hydroxypropylcellulose) (HPC) 103 % of control

CC(=O)NNc1ccc([N+](=O)[O-])cn1
inactive: [8] 100 % of control | [16] 100 % of control | [17] 100 % of control

COc1ccc(C)cc1CCC=O
inactive: [8] 97 % of control | [16] 101 % of control | [17] 95 % of control

C[N+](C)(C)C(=Nc1ccccc1)c1ccccc1
inactive: dose: 12.5 mg/kg/injection, schedule: Q01DX009 (ip), vehicle: Klucel (hydroxypropylcellulose) (HPC) 100 % of control | dose: 25.0 mg/kg/injection, schedule: Q01DX009 (ip), vehicle: Klucel (hydroxypropylcellulose) (HPC) 96 % of control | dose: 25.0 mg/kg/injection, schedule: Q04DX003 (ip), vehicle: Klucel (hydroxypropylcellulose) (HPC) 108 % of control | [18] 100 % of control and 105 % of control | dose: 50.0 mg/kg/injection, schedule: Q04DX003 (ip), vehicle: Klucel (hydroxypropylcellulose) (HPC) 94 % of control | [11] 100 % of control

Cc1ccc(NS(=O)(=O)c2ccccc2)cc1Cl
inactive: [10] 106 % of control | [11] 108 % of control | [12] 109 % of control | [13] 98 % of control | [14] 98 % of control | [15] 97 % of control

CC1=CC(=O)OC(C)(C)C1
inactive: [9] 97 % of control | dose: 200.0 mg/kg/injection, schedule: Q04DX003 (ip), vehicle: saline 96 % of control | dose: 400.0 mg/kg/injection, schedule: Q04DX003 (ip), vehicle: saline 99 % of control

CC1=CC(c2c(O)cccc2O)C(=C(C)C)CC1 (stereo not drawn)
inactive: [18] 95 % of control | [10] 95 % of control | [12] 95 % of control

c1ccc2c(c1)C1c3ccccc3C2C2COCC12 (stereo not drawn)
inactive: [18] 113 % of control | [10] 108 % of control | [11] 98 % of control | [13] 100 % of control

CSc1cc(N)nc2nc[nH]c12
inactive: [8] 105 % of control | [16] 98 % of control | [17] 98 % of control

CCCNC(=O)c1cccc(-c2cccc(C(=O)NCCC)c2)c1
inactive: dose: 200.0 mg/kg/injection, schedule: Q01DX001 (ip), vehicle: other 93 % of control

O=C(c1ccccc1)C1CSC1Br (stereo not drawn)
inactive: [2] 102 % of control | [4] 98 % of control | [6] 100 % of control

OCC1C2CCC(C2)C1CO (stereo not drawn)
inactive: dose: 50.0 mg/kg/injection, schedule: Q01DX009 (ip), vehicle: saline with Tween-80 96 % of control

O=c1[nH]nnc2c1cnn2C1OC(CO)C(O)C1O (stereo not drawn)
inactive: [8] 100 % of control | [16] 106 % of control | [17] 97 % of control

CCOc1nc(N)c(C(N)=O)cc1C#N
inactive: dose: 100.0 mg/kg/injection, schedule: Q04DX003 (ip), vehicle: saline sonified 98 % of control | dose: 200.0 mg/kg/injection, schedule: Q04DX003 (ip), vehicle: saline sonified 105 % of control
